Some test systems named below: UO-31; UACC-62; M19-MEL; HCC 2998; Malme-3M; U-251; A549; HL-60; HT-29; IGROV-1; ACHN; CAKI-1; A498; EKVX; NCI-H522; MCF7; DU-145; BT-549; PC-3; NCI/ADR-RES.
Assay in all cases: NCI anticancer screen, dose series, 48 h

Structures are written as SMILES.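 Growth conditions: 96-well plates. Treatment: test compound, 48 hours, 5 concentrations. Analysis: linear interpolation between bracketing concentrations; unreached endpoints set to highest concentration. GI50: concentration for 50% inhibition of growth.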 The source made the active and inactive calls. Rule as the data show it: active = GI50 up to about 1.1 µM and inactive = higher.

With `CCOC(=O)NC1C2CC(=O)C(O2)C1OCc1ccccc1` (configuration not stated), the GI50 with UO-31 was 78 µM (inactive); in the assay on UACC-62, > 100 µM (inactive); with M19-MEL, > 100 µM (inactive); in the assay with HCC 2998, > 100 µM (inactive); in the assay on Malme-3M it was > 100 µM (inactive); in the assay on U-251, > 100 µM (inactive). The GI50 in the assay on A549, in the assay with HL-60, in the assay with HT-29, in the assay with IGROV-1, in the assay with ACHN and in the assay on CAKI-1 was > 100 µM (inactive) throughout. In the assay on A498, the GI50 was > 100 µM (inactive).

Regarding `CCN(CC)CCC(=O)/C=C/c1ccc(C)cc1`, the GI50 with UO-31 is 16.2 µM (inactive); with UACC-62 it was 16.6 µM (inactive); with M19-MEL it was 12.8 µM (inactive); with HCC 2998 it was 18.6 µM (inactive); in the assay with Malme-3M, 19.3 µM (inactive); in the assay on U-251 it was 10.2 µM (inactive). Besides, the GI50 is 18.8 µM (inactive) in the assay on A549; 10.8 µM (inactive) in the assay with HL-60; 15.1 µM (inactive) with HT-29; 15.3 µM (inactive) in the assay with IGROV-1; 17.1 µM (inactive) in the assay with EKVX; 14.4 µM (inactive) in the assay on ACHN. The results for the GI50 in the assay with CAKI-1 and in the assay with A498 were 1.83 µM (inactive) and 11.2 µM (inactive), respectively.

On to `Cc1cccc2c3ccc4c(c3n(C)c12)C(=O)C=CC4=O`, for which the GI50 in the assay with UO-31 is 28.9 µM (inactive); with NCI-H522 it was > 100 µM (inactive); in the assay on UACC-62 it was 59.7 µM (inactive); with M19-MEL, > 100 µM (inactive); in the assay with HCC 2998, > 100 µM (inactive); in the assay on Malme-3M, > 100 µM (inactive). Besides, the GI50 in the assay on A549 was > 100 µM (inactive); in the assay on HL-60 it was 17.1 µM (inactive); in the assay on HT-29, > 100 µM (inactive); with IGROV-1, > 100 µM (inactive); in the assay on EKVX it was > 100 µM (inactive); in the assay with CAKI-1, > 100 µM (inactive).

On to `COc1ccc(-n2nnc3c(C#N)c(-c4ccccc4)c(C)n3c2=O)cc1`, for which the GI50 in the assay with MCF7 is 40.2 µM (inactive); in the assay with UO-31, 71.3 µM (inactive); with NCI-H522, 22.6 µM (inactive); with UACC-62, 53.7 µM (inactive); in the assay on HCC 2998, 72.6 µM (inactive); in the assay with Malme-3M it was > 100 µM (inactive). For the same compound, the GI50 in the assay with U-251 was 32.7 µM (inactive); with A549 it was > 100 µM (inactive); with HL-60, 3.69 µM (inactive); in the assay on HT-29, 43.9 µM (inactive); in the assay on IGROV-1 it was 24 µM (inactive); with DU-145, 74.8 µM (inactive). Further, the GI50 in the assay on EKVX was 62.2 µM (inactive); in the assay on ACHN it was 30.1 µM (inactive); with BT-549, > 100 µM (inactive); in the assay with PC-3 it was 29.2 µM (inactive); in the assay on CAKI-1 it was 45.4 µM (inactive); in the assay with NCI/ADR-RES, 66.2 µM (inactive). Moreover, in the assay on A498, the GI50 was 38.1 µM (inactive).

For `C[Si](C)(C)CC(N)=O`, the GI50 with UO-31, with UACC-62, in the assay with M19-MEL, in the assay on HCC 2998, in the assay on Malme-3M and in the assay on U-251 was > 100 µM (inactive) in each case. The GI50 in the assay on A549, with HL-60, with HT-29, with IGROV-1, in the assay on EKVX and in the assay with ACHN was > 100 µM (inactive) in each case. In the assay on CAKI-1, the GI50 was > 100 µM (inactive).

In the case of `Cc1cccc(NC(=O)O/N=C(\Cl)C(C)C)c1`, the GI50 was 10 µM (inactive) in the assay on MCF7; 16.6 µM (inactive) in the assay with UO-31; 1.54 µM (inactive) with NCI-H522; 15.9 µM (inactive) in the assay with UACC-62; 19.1 µM (inactive) in the assay with HCC 2998; 2.19 µM (inactive) with Malme-3M. The GI50 in the assay with U-251 is 20.7 µM (inactive); in the assay with A549 it was 20.5 µM (inactive); in the assay on HL-60, 1.94 µM (inactive); in the assay with HT-29, 10.4 µM (inactive); in the assay with IGROV-1 it was 17.5 µM (inactive); in the assay on DU-145, 18.6 µM (inactive). In addition, the GI50 with EKVX was 6.03 µM (inactive); in the assay with ACHN, 2.02 µM (inactive); with BT-549, 5.45 µM (inactive); in the assay with PC-3, 16.7 µM (inactive); in the assay with CAKI-1, 1.74 µM (inactive); in the assay on NCI/ADR-RES, 21.3 µM (inactive). In the assay on A498, the GI50 was 18.5 µM (inactive).

For `CC(=O)Nc1ccc(/C=c2\sc3nnc(CCC(=O)Nc4ccccc4Cl)n3c2=O)cc1`, the GI50 was > 100 µM (inactive) in the assay with UO-31; 18.7 µM (inactive) in the assay on NCI-H522; 23.9 µM (inactive) in the assay with UACC-62; 37.4 µM (inactive) with M19-MEL; > 10 µM (inactive) in the assay with HCC 2998; 38.8 µM (inactive) with Malme-3M. Also, the GI50 with U-251 was 17.9 µM (inactive); in the assay with A549 it was 30.4 µM (inactive); with HL-60, 19.8 µM (inactive); with HT-29 it was 54.2 µM (inactive); in the assay with IGROV-1 it was > 100 µM (inactive); in the assay on EKVX, > 100 µM (inactive). In addition, the GI50 in the assay with ACHN and with CAKI-1 was > 100 µM (inactive) each time.

As to `CC1(C)OC2COC3(CNO)OC(C)(C)OC3C2O1` (configuration not stated), the GI50 in the assay on UO-31, in the assay on UACC-62, with M19-MEL, in the assay with HCC 2998, in the assay on Malme-3M and with U-251 was > 100 µM (inactive) each time. Also, the GI50 with A549 is > 100 µM (inactive); in the assay with HL-60, 16.6 µM (inactive); in the assay with HT-29, > 100 µM (inactive); with IGROV-1 it was > 100 µM (inactive); in the assay on EKVX, > 100 µM (inactive); with ACHN it was > 100 µM (inactive). In addition, the GI50 in the assay on CAKI-1 and in the assay with A498 was > 100 µM (inactive) each time.

Take `O=C1c2ccccc2CCC1C(O)(C(F)(F)F)C(F)(F)F` (configuration not stated): the GI50 in the assay on MCF7 was > 100 µM (inactive); with UO-31 it was > 100 µM (inactive); with NCI-H522 it was > 100 µM (inactive); in the assay with UACC-62, > 100 µM (inactive); in the assay with HCC 2998 it was 3.67 µM (inactive); in the assay on Malme-3M it was > 100 µM (inactive). Moreover, the GI50 with U-251 is > 100 µM (inactive); in the assay with A549 it was > 100 µM (inactive); in the assay with HL-60 it was > 10 µM (inactive); with HT-29, > 100 µM (inactive); in the assay with IGROV-1, > 100 µM (inactive); in the assay with DU-145, > 100 µM (inactive). For the same compound, the GI50 in the assay with EKVX, with ACHN, with BT-549, with PC-3, with CAKI-1 and with NCI/ADR-RES was > 100 µM (inactive) each time. In addition, the GI50 in the assay with A498 is > 100 µM (inactive).

For `[O-][S+]1c2ccccc2NC(c2ccc3ccccc3c2)CC1c1ccccc1` (configuration not stated), the GI50 in the assay with UO-31 is 18 µM (inactive); in the assay on NCI-H522, 17.8 µM (inactive); in the assay on UACC-62, 37.1 µM (inactive); in the assay with M19-MEL, 20.9 µM (inactive); in the assay with HCC 2998, 17.8 µM (inactive); in the assay on Malme-3M, 61.5 µM (inactive). Moreover, the GI50 is 30.1 µM (inactive) in the assay on A549; 24.3 µM (inactive) in the assay with HL-60; 22.3 µM (inactive) in the assay on HT-29; 19.3 µM (inactive) in the assay with IGROV-1; 26.6 µM (inactive) in the assay with EKVX; 20.8 µM (inactive) with ACHN. Moreover, in the assay on CAKI-1, the GI50 is 26.8 µM (inactive).

Consider `N#CC1=C(N)C(C#N)(C#N)C(c2ccc(F)cc2)C=C1C1CC1` (configuration not stated), for which the GI50 was 5.09 µM (inactive) with MCF7; 14 µM (inactive) in the assay with UO-31; 3.78 µM (inactive) in the assay with NCI-H522; 8.24 µM (inactive) in the assay with UACC-62; 12.8 µM (inactive) in the assay with HCC 2998; 11.5 µM (inactive) in the assay on Malme-3M. Besides, the GI50 is 5.68 µM (inactive) in the assay on U-251; 13.8 µM (inactive) in the assay with A549; 4.13 µM (inactive) in the assay on HL-60; 6.12 µM (inactive) in the assay with HT-29; 12.9 µM (inactive) in the assay with IGROV-1; 12.9 µM (inactive) in the assay with DU-145. Further, the GI50 in the assay on EKVX was 17.6 µM (inactive); in the assay with ACHN, 12.9 µM (inactive); in the assay with BT-549 it was 3.2 µM (inactive); with PC-3, 10.2 µM (inactive); with CAKI-1 it was 15 µM (inactive); in the assay with NCI/ADR-RES, 14.5 µM (inactive). The GI50 with A498 was 11.4 µM (inactive).

For `CCCC(=O)c1c(NOC2OCC(OC(C)=O)C(OC(C)=O)C2OC(C)=O)nc(OC)n(C)c1=O` (configuration not stated), the GI50 in the assay with UO-31, with UACC-62, with M19-MEL, in the assay with HCC 2998, with Malme-3M and in the assay on U-251 was > 100 µM (inactive) throughout. In addition, the GI50 was > 100 µM (inactive) in the assay with A549; 0.498 µM (active) in the assay with HL-60; > 100 µM (inactive) in the assay with HT-29; > 100 µM (inactive) with IGROV-1; > 100 µM (inactive) in the assay with EKVX; > 100 µM (inactive) in the assay with ACHN. For the same compound, the GI50 with CAKI-1 and with A498 was > 100 µM (inactive) each time.

As for `COc1ccc(OC)c(C(=O)/C=C/c2cc(O)c(O)cc2F)c1`, the GI50 in the assay on MCF7 was 0.29 µM (active); in the assay with UO-31 it was 2.66 µM (inactive); in the assay with NCI-H522, 0.272 µM (active); in the assay with UACC-62 it was 0.701 µM (active); with HCC 2998, 0.538 µM (active); in the assay on Malme-3M, 2.47 µM (inactive). For the same compound, the GI50 is 0.486 µM (active) in the assay on U-251; 9.57 µM (inactive) in the assay with A549; 0.0361 µM (active) in the assay on HL-60; 7.14 µM (inactive) in the assay with HT-29; 1.61 µM (inactive) in the assay on IGROV-1; 0.817 µM (active) in the assay with DU-145. The GI50 with EKVX was 8.04 µM (inactive); with ACHN it was 2.27 µM (inactive); in the assay on BT-549, 0.843 µM (active); in the assay with PC-3, 4.18 µM (inactive); in the assay on CAKI-1, 4.71 µM (inactive); in the assay on NCI/ADR-RES it was 0.412 µM (active). The GI50 with A498 was 3.17 µM (inactive).
